Data on 1 molecule can be found in patent publication US9546144B2, “Bifunctional compounds” (University of Pittsburgh—of the Commonwealth System of …, priority 2011, dated 2017).

Data set [1] relates to bone marrow stromal cell line derived from C57BL/6NTac mice. Nature of the data set: in vitro clonogenic radiation survival curves. The class given is cell-based, mouse. Conditions: 100 μM added 10 min after irradiation; control 1.9±0.1, p=0.0444. Here is the method:
FIG. 12. In vitro radioprotection and mitigation of bone marrow stromal cells. In vitro survival curves were performed using a bone marrow stromal cell line derived from C57BL/6NTac mice. Cells were incubated in 100 μM MMS350 for one hour before irradiation or was added to the cells 10 min after irradiation. Cells were irradiated to doses ranging from 0 to 8 Gy, plated in 4 well tissue culture plates, incubated for 7 days at 37° C. in a humidified CO2 incubator, and stained with crystal violet. Colonies of greater than 50 cells were counted and analyzed using a linear quadratic model or single-hit, multi-target model.
The murine C57BL/6 bone marrow stromal cell line (Epperly M W, Sikora C A, Defilippi S, Gretton J E, Greenberger J S. Bone marrow origin of myofibroblasts in irradiation pulmonary fibrosis. Am J Resp Molecular Cell Biology 2003; 29:213-224) and its use in clonogenic radiation survival curves has been described (Epperly M W, Gretton J E, Bernarding M, Nie S, Rasul B, Greenberger J S. Mitochondrial localization of copper/zinc superoxide dismutase (Cu/ZnSOD) confers radioprotective functions in vitro and in vivo. Radiation Research 2003; 160:568-578).
Cell lines were irradiated at dose rate of 70 cGy per minute using a Cesium Gamma Cell Irradiator according to published methods. […]

The subject of data set [2] is C57BL/6NTac mice. Description: total body irradiation survival (hematopoietic syndrome). The class given is in vivo, mouse. Conditions: 9.5 Gy. Here is the method: FIG. 11. MMS350 was dissolved in PBS and injected IP at 20 mg/kg. The mice were irradiated to 9.5 Gy total body irradiation and then injected at 4 or 24 hr after irradiation.
FIG. 13. In vivo mitigation of total body irradiation by MMS350. MMS350 was dissolved in water at a concentration of 2 mg/ml. C57BL/6NTac mice (n=15/group) were irradiated to 9.5 Gy total body irradiation and injected intraperitoneally with 10 mg/kg of MMS350 at 4 or 24 hr. after irradiation. The mice were followed for the development of the hematopoietic syndrome at which time the mice were sacrificed.
MMS350 was delivered by intraperitoneal injection to C57BL/6 mice (n=15/group) before or after the 9.5 Gy of total body irradiation (a dose which kills at least 50% of mice at 30 days) and indicative of death from the hematopoietic syndrome (bone marrow failure).
Mice were irradiated using JL Shepherd Mark 1 Model 68 irradiator to 9.25 total body irradiation dose or a Varian Linear Accelerator (Varian Medical Systems, Inc, Palo Alto, Calif.) to 20 Gy for pulmonary irradiation according to published methods (2, 10, 13).
Mice were injected intra-peritoneally with MMS350 or JP4-039 (GS-nitroxide) in 50% cremphor/50% ethanol according to published methods. For long-term administration of MMS350, the drug was administered in water bottles with bottles changed every 7 days. The dose of drug per bottle was 100 μM MMS350 starting on day 88. The estimated total amount consumed by each animal daily was 10.9 μg based on a mouse drinking 5 ml of water per day. Chimeric mice irradiated to the thoracic cavity were placed 30 days later on MMS350 in water containing 100 mM MMS350. On day 88 after thoracic irradiation of non-chimeric mice, mice were placed on […] MMS350 in drinking water.

Data set [3] has as its system C57BL/6NTac mice. Description: radiation pulmonary fibrosis and survival after 20 Gy thoracic irradiation. Conditions: in drinking water. The class given is in vivo, mouse. The text has this: FIG. 23. MMS350 in drinking water decreases fibrosis in the lungs of thoracic irradiated (20 Gy) mice.
For lung irradiation, mice were irradiated to the thoracic cavity with shielding of the head and neck region and abdomen and lower body according to published methods. Animals received 20 Gy single fraction thoracic irradiation and were then maintained according to IACUC directed laboratory conditions. Mice were sacrificed at serial time points after thoracic irradiation including pre-irradiation, days 2, 7, 14, 28, 50, 75, 100, 110, 150 and 200 post-irradiation. Lungs were removed and sagittal sections assayed for percent of lung replaced by fibroblasts and organizing alveolitis according to published methods.
Lungs from irradiated and luc+ cell line injected mice were removed and serial sectioned. Sections were stained for luc+, GFP+ cells, BrdU incorporation, and for quantitation of percent lung replaced by fibrosis (organizing alveolitis) according to published methods.
Mice were injected intra-peritoneally with MMS350 or JP4-039 (GS-nitroxide) in 50% cremphor/50% ethanol according to published methods. For long-term administration of MMS350, the drug was administered in water bottles with bottles changed every 7 days. The dose of drug per bottle was 100 μM MMS350 starting on day 88. […]

Data set [4] in a line: storage in 25% w/w solutions of 3 and NMP. The format is physicochemical. Conditions: 25% w/w 3 and NMP at −20° C. The procedure:
Because sulfoxide 3 is a solid, it would have to be mixed with an appropriate water-soluble cosolvent to act as a compound storage additive. NMP was chosen for exploring this potential application due to its thermal stability and low toxicity. […] The compound test set (FIG. 2) was stored in 25% w/w solutions of 3 and NMP for 6 weeks at −20° C.

On to `CC1(C[S+]([O-])CC2(C)COC2)COC1` [compound 3, 3,3′-Sulfinylbis(methylene)bis(3-methyloxetane)], for which the “D0 of the survival curve” value in data set [1] is 2.4±0.3. Also, the “survival after total body irradiation” value in data set [2] (10 mg/kg intraperitoneally 4 hr after irradiation, p=0.0092) is given as “significantly increased survival”; in data set [2] (10 mg/kg intraperitoneally 24 hr after irradiation, p=0.0097) it was “significantly increased survival”. Moreover, the “protection against total body irradiation” value in data set [2] (intraperitoneal injection before irradiation) is given as “protector when delivered prior to irradiation”. For the same molecule, the “survival of thoracic irradiated mice” value in data set [3] is on record as “significantly increased survival”. In addition, the “behaviour of 3 in the storage solution” value in data set [4] is given as “partly precipitated from the solution”.
